Measured values from US20240287048A1, “SUBSTITUTED ACYL SULFONAMIDES FOR TREATING CANCER” (The Broad Institute, Inc., priority 2020, published 2024).

Key:
[1] = system: MDA-MB-436 cells; assay: Proliferation assay in MDA-MB-436 cells (negative control cell line); format: cell-based; details: Homo sapiens, 144 h, Alamar Blue, read-out: MDA-MB-436 proliferation assay, EC50[M] (arithmetic mean)
Text: (§1) For compound characterization cell survival assays were routinely run in two cell lines. ZR-75-1 is a breast carcinoma cell line containing a focal KAT6A amplification and high KAT6A protein expression. Proliferation of this cell line is inhibited upon treatment with KAT6A inhibitors. As a negative control cell line MDA-MB-436 were used. These cells carry a […] deletion of the KAT6A gene, have a low KAT6A protein expression and are not growth inhibited upon treatment with KAT6A inhibitors.
(§2) For measurements cell lines were plated at the below indicated concentration per […] in 96-well plates in a humidified incubator at 37° C. and 5% CO2.
(§3) ZR-75-1 (ATCC, CRL-1500; breast carcinoma); 3000 cells per well; culture medium: RPMI 1640 (Biochrom #FG 1215) medium containing 2.5% FBS (Biochrom #S0615). LCLC-97TM1 (DSMZ, ACC 388; large cell lung carcinoma); 6000 cells per well; culture medium: RPMI 1640 (Biochrom #FG 1215) medium containing 2.5% FBS (Biochrom #S0615). MDA-MB-436 (CLS, 300278; breast adenocarcinoma); 3000 cells per well; culture medium: DMEM/Ham's F12 (Biochrom #FG 4815) medium containing 2.5% FBS (Biochrom #S0615).
(§4) Each sample was prepared as triplicate and rim wells were excluded. Plates were incubated at 37° C. and 5% CO2 for 144 h. Cell viability was measured by adding 10 μL of Alamar Blue Reagent (Invitrogen #DAL 1100) and plates were incubated for 2 h at 37° C. and 5% CO2. Fluorescence was measured at 590 nm wavelength with a Tecan Spark or Victor X3 MTP-Reader (PerkinElmer).

[2] = system: LCLC-97TM1 cells; assay: Proliferation assay in LCLC-97TM1 cells; format: cell-based; details: Homo sapiens, 144 h, Alamar Blue, read-out: LCLC97TM1 proliferation assay, EC50[M] (arithmetic mean)
Experimental: as §2, §3, §4

[3] = system: ZR-75-1 cells; assay: Proliferation assay in ZR-75-1 cells; format: cell-based; details: Homo sapiens, 144 h, Alamar Blue, read-out: ZR75-1 proliferation assay, EC50[M] (arithmetic mean)
Text: as §1, §2, §3, §4

[4] = target: T1, KAT6A (Homo sapiens, UniProt Q92794); assay: Kat6a activity assay (TR-FRET, acetylation of biotinylated histone H4 peptide); format: biochemical; details: recombinant human His-tagged Kat6a (amino acids 194-810), 60 mins at 22° C., read-out: KAT6A-DPF/HAT domain IC50 [mol/l] (arithmetic mean)
T1 construct: Recombinant human His-tagged Kat6a protein (amino acids 194-810); His; made in house; host or cells: Baculovirus-infected Sf9 insect cells
Text: Kat6a inhibitory activities of the compounds described in the present invention were quantified using a Fluorescence Resonance Energy Transfer (TR-FRET) assay which measures acetylation of a synthetic, biotinylated Histone-H4-derived peptide by the enzyme.
Recombinant human His-tagged Kat6a protein (amino acids 194-810), was purified in-house from Baculovirus-infected insect cells (Sf9). Histone H4 peptide (amino acids 1-24, […]-VLRD-K(Btn)-amide), which was used as substrate, was synthesized by Biosyntan GmbH, Berlin, Germany. Acetyl Coenzyme A was purchased from Sigma-Aldrich (#A-2056).
Kat6a was incubated for 60 mins at 22° C. in the presence of different concentrations of test substances (0 μM, and within the range 0.01-20 μM) in assay buffer [25 mM Tris/HCl pH 8, 1 mM EGTA, 2.5 mM Glutathion, 0.02% Chicken Albumin, 0.05% Pluronic F127, 25 mM NaCl, 220 nM H4 peptide and 600 nM Acetyl Coenzyme A].
The reaction was stopped by addition of Detection Solution (25 mM HEPES pH 7.5, 0.1% BSA, 22 nM SAXL665 (Cisbio #610SAXLE), 100 μM Anacardic Acid (Enzo #ALX-270-381), 1 nM Anti-Histone H4 (ACETYL K8) Antibody (ABCAM #AB15823) and 0.5 nM Anti-Rabbit IgG Eu (Perkin Elmer #AD0083).
The fluorescence emission at 620 nm and 665 nm after excitation at 330-350 nm was measured in a TR-FRET measuring instrument, for instance a Rubystar or a Pherastar (both from BMG Lab Technologies, Offenburg, Germany) or a Viewlux (Perkin-Elmer). The ratio of the emission at 665 nm and at […] was used as indicator of the amount of acetylated peptide.
The resulting data (ratio) were normalized, taking 0% inhibition as the mean value of control measurements where all reagents were included. In this case 50 nl DMSO were used instead of compounds. […] IC50 values were determined by regression analysis based on a 4 parameter equation (minimum, maximum, ICM, Hill; Y=Max+(Min−Max)/(1+(X/ICso) Hill) using the Screener Software (Genedata).

[5] = system: ESR1 transcription in MVLN cells; assay: Repression of ESR1 transcription, MVLN luciferase reporter assay; format: cell-based; details: Homo sapiens, luciferase signal after 24 h, read-out: MVLN reporter assay, IC50[M] (arithmetic mean)
Text: KAT6A controls transcription of the ESR1 gene in breast cancer cells. Compound treatment that interferes with this mechanism was quantified using MVLN cells. These cells constitutively express the ER and are stably transfected with the luciferase (LUC) reporter gene and the corresponding hormone responsive element derived from the 5′-flanking region of the Xenopus Vitellogenin A2 gene (Pons et al., 1990, Demirpense et al., 1993, Joyeux et al., 1993). The repressive effect on ERα transcription activity of a test chemical is directly related to the luciferase measured in the lysate of treated MVLN cells.
Each sample was prepared as duplicate and rim wells were excluded. For luciferase signal determination 100 μl of a 1:1 mixture of Steadylite plus (Perkin Elmer; 6016759) and assay medium was added after 24 h for 15 minutes and measured in Victor X3 (Perkin Elmer). To exclude any effects caused by cell loss during the treatment, cell density was determined using Alamar Blue (Invitrogen; DAL1100). Prior to the luciferase measurement 10 μl Alamar Blue were added to each well and the plates were incubated for 2 h in the incubator. Then fluorescence was measured with Victor X3 (Perkin Elmer) at 530 nm/590 nm.

T1 sequence (Q92794 194-810): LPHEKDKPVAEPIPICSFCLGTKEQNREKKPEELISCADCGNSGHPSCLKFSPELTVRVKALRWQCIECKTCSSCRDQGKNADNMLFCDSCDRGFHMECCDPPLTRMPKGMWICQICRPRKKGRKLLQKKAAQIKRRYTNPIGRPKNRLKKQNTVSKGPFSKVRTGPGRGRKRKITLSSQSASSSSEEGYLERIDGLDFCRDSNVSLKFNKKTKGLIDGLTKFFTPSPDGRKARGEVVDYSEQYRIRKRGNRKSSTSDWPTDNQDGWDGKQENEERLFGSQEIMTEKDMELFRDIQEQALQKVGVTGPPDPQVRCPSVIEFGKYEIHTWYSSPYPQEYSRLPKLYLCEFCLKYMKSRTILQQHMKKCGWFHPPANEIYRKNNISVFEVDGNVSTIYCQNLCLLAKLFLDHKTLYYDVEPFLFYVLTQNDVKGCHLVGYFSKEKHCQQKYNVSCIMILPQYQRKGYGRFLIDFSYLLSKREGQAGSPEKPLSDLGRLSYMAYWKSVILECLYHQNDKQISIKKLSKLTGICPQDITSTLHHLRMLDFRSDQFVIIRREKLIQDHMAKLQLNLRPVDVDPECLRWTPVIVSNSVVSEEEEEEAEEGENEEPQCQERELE

O=C(NS(=O)(=O)c1ccccc1-c1ccccc1)c1cc2c(F)cc(C3CC3)cc2o1 [Example 38, 6-Cyclopropyl-4-fluoro-N-(2-phenylphenyl)sulfonyl-benzofuran-2-carboxamide]
EC50 [1]: > 2e-05 M | EC50 [2]: 3.21e-06 M | EC50 [3]: 9.57e-07 M | IC50 [4]: 0.0173 µM | IC50 [5]: 1e-06 M

Cc1ccc2cccc(S(=O)(=O)NC(=O)c3cc4c(N(C)C)cc(C5CC5)cc4o3)c2n1 [Example 43, 6-Cyclopropyl-4-(dimethylamino)-N-[(2-methyl-8-quinolyl)sulfonyl]benzofuran-2-carboxamide]
EC50 [1]: > 2e-05 M | EC50 [2]: > 2e-05 M | EC50 [3]: 5.64e-06 M | IC50 [4]: 0.013 µM | IC50 [5]: 6.92e-06 M

CCOc1ccccc1S(=O)(=O)NC(=O)c1cc2c(N(C)C)cc(C3CC3)cc2o1 [Example 45, 6-Cyclopropyl-4-(dimethylamino)-N-(2-ethoxyphenyl)sulfonyl-benzofuran-2-carboxamide]
EC50 [1]: > 2e-05 M | EC50 [2]: > 2e-05 M | EC50 [3]: > 2e-05 M | IC50 [4]: 0.0799 µM | IC50 [5]: 1.68e-05 M

N#Cc1ccc2cc(C(=O)NS(=O)(=O)c3ccccc3-c3ccccc3)oc2c1 [Example 3, N-([1,1′-biphenyl]-2-sulfonyl)-6-cyano-1-benzofuran-2-carboxamide]
EC50 [1]: > 2e-05 M | EC50 [3]: > 2e-05 M | IC50 [4]: > 20 µM

O=C(O)c1ccc2cc(C(=O)NS(=O)(=O)c3ccccc3-c3ccccc3)oc2c1 [Example 5, 2-[([1,1′-biphenyl]-2-sulfonyl)carbamoyl]-1-benzofuran-6-carboxylic acid]
EC50 [1]: > 2e-05 M | EC50 [3]: > 2e-05 M | IC50 [4]: 5.75 µM | IC50 [5]: > 2e-05 M

O=C(NS(=O)(=O)c1ccccc1-c1ccccc1)c1cc2c(C(F)(F)F)cc(C3CC3)cc2o1 [Example 53, 6-Cyclopropyl-N-(2-phenylphenyl)sulfonyl-4-(trifluoromethyl)benzofuran-2-carboxamide]
EC50 [3]: > 2e-05 M | IC50 [4]: 0.043 µM | IC50 [5]: 6.16e-06 M

O=C(NS(=O)(=O)c1ccccc1)c1cc2c(C(F)(F)F)cc(C3CC3)cc2o1 [Example 52, N-(Benzenesulfonyl)-6-cyclopropyl-4-(trifluoromethyl)benzofuran-2-carboxamide]
EC50 [3]: 7.32e-06 M | IC50 [4]: 0.138 µM | IC50 [5]: 1.88e-05 M

Cc1ccc2cccc(S(=O)(=O)NC(=O)c3cc4ccc(C(F)(F)F)cc4o3)c2n1 [Example 19, N-(2-Methylquinoline-8-sulfonyl)-6-(trifluoromethyl)-1-benzofuran-2-carboxamide]
EC50 [1]: > 2e-05 M | EC50 [2]: > 2e-05 M | EC50 [3]: 4.94e-06 M | IC50 [4]: 0.729 µM | IC50 [5]: 3.63e-06 M

Cc1ccc2c(C)c(C(=O)NS(=O)(=O)c3ccccc3-c3ccccc3)oc2c1 [Example 14, N-([1,1′-biphenyl]-2-sulfonyl)-3,6-dimethyl-1-benzofuran-2-carboxamide]
EC50 [1]: > 2e-05 M | EC50 [2]: 9.97e-06 M | EC50 [3]: 8.7e-06 M | IC50 [4]: 0.459 µM | IC50 [5]: 4.11e-06 M

Cc1ccc2cccc(S(=O)(=O)NC(=O)c3cc4c(OC(F)F)cc(C5CC5)cc4o3)c2n1 [Example 47, 6-Cyclopropyl-4-(difluoromethoxy)-N-[(2-methyl-8-quinolyl)sulfonyl]benzofuran-2-carboxamide]
EC50 [1]: > 2e-05 M | EC50 [2]: > 2e-05 M | EC50 [3]: 3.24e-06 M | IC50 [4]: 0.00478 µM | IC50 [5]: 4.65e-06 M

O=C(NS(=O)(=O)c1ccccc1-c1ccccc1)c1cc2ccc(C3CC3)c(F)c2o1 [Example 15, N-([1,1′-biphenyl]-2-sulfonyl)-6-cyclopropyl-7-fluoro-1-benzofuran-2-carboxamide]
EC50 [1]: > 2e-05 M | EC50 [2]: > 2e-05 M | EC50 [3]: 8.42e-06 M | IC50 [4]: 0.908 µM | IC50 [5]: 6.75e-06 M

CC(C)c1ccc2cc(C(=O)NS(=O)(=O)c3ccc(Cl)cc3Cl)oc2c1 [Example 57, N-(2,4-Dichlorobenzenesulfonyl)-6-(propan-2-yl)-1-benzofuran-2-carboxamide]
EC50 [1]: > 2e-05 M | EC50 [3]: > 2e-05 M | IC50 [5]: 1.21e-05 M

O=C(NS(=O)(=O)c1ccccc1)c1cc2c(F)cc(C3CC3)cc2o1 [Example 39, N-(Benzenesulfonyl)-6-cyclopropyl-4-fluoro-benzofuran-2-carboxamide]
EC50 [1]: > 2e-05 M | EC50 [2]: > 2e-05 M | EC50 [3]: 3.21e-06 M | IC50 [4]: 0.0707 µM | IC50 [5]: 4.57e-06 M

O=C(NS(=O)(=O)c1ccccc1-c1ccccc1)c1cc2ccc(-c3cccnc3)cc2o1 [Example 4, N-([1,1′-biphenyl]-2-sulfonyl)-6-(pyridin-3-yl)-1-benzofuran-2-carboxamide]
EC50 [1]: > 2e-05 M | EC50 [2]: > 2e-05 M | EC50 [3]: > 2e-05 M | IC50 [4]: 15.2 µM | IC50 [5]: 1.98e-05 M

O=C(NS(=O)(=O)c1ccccc1-c1ccccc1)c1cc2ccc(-c3ccncc3)cc2o1 [Example 20, N-([1,1′-Biphenyl]-2-sulfonyl)-6-(pyridin-4-yl)-1-benzofuran-2-carboxamide]
EC50 [1]: > 2e-05 M | EC50 [3]: 3.49e-06 M | IC50 [4]: > 20 µM

CCOc1ccccc1S(=O)(=O)NC(=O)c1cc2c(C(F)(F)F)cc(C3CC3)cc2o1 [Example 51, 6-Cyclopropyl-N-(2-ethoxyphenyl)sulfonyl-4-(trifluoromethyl)benzofuran-2-carboxamide]
EC50 [3]: 9.14e-06 M | IC50 [4]: 0.0256 µM | IC50 [5]: 2.98e-06 M

C=C(C)c1ccc2cc(C(=O)NS(=O)(=O)c3ccccc3-c3ccccc3)oc2c1 [Example 23, N-([1,1′-biphenyl]-2-sulfonyl)-6-(prop-1-en-2-yl)-1-benzofuran-2-carboxamide]
EC50 [1]: > 2e-05 M | EC50 [3]: 1.15e-06 M

CN(C)C(=O)c1ccc2cc(C(=O)NS(=O)(=O)c3ccccc3-c3ccccc3)oc2c1 [Example 8, N^2-([1,1′-biphenyl]-2-sulfonyl)-N^6,N^6-dimethyl-1-benzofuran-2,6-dicarboxamide]
EC50 [1]: > 2e-05 M | EC50 [3]: > 2e-05 M | IC50 [4]: 17.3 µM | IC50 [5]: > 2e-05 M
